Where no end group is shown, it is not given here.
Assay: in vitro
Details: human, 293T cells

Question: For KKALLAHALHLLALLALHLAHALKKA-NH2 [LAH4], which CC50 at 24 h is on record?
Answer: > 125 µg/mL
